System: recovered yeast (slurry yeast recovered from the beer fermentation step)
Assay: Methylene Blue staining ratio (mortality) of yeast before drying or after drying and reconstitution with water
Format: cell-based
Conditions: for Elevating the survival ratio of the yeast after reconstitution with water, similar to glycerol: as substitute for glycerol; for Ratio of the dead cells after drying and reconstitution with water: 5% of trehalose; for Elevating the survival ratio of the dry yeast after reconstitution with water, similar to trehalose: as substitute for trehalose
Experimental: 50 g of a 20% aqueous solution of trehalose was added to 50 g of the recovered yeast and the resultant mixture was stirred at 20° C. for 3 hours to thereby incorporate the trehalose into the yeast cells. Then the yeast having trehalose thus incorporated was filtered under suction on a filter paper No.2 with the use of a Nutsche filter. The obtained yeast was then passed through a 14-mesh sieve and dried in a thermostat at 30° C. for about 20 hours to give a dry yeast. 0.1 g of this dry yeast was suspended and reconstituted in 1 ml of distilled water at room temperature. Then the mortality of the yeast was measured by the Methylene Blue staining method. Since dead cells could not reduce Methylene Blue, the cells stained with Methylene Blue were regarded as dead cells. Thus, the Methylene Blue staining ratio could be referred to as the mortality. […] Thus, trehalose was incorporated as in Example 1 and then the yeast was dried. […]
To 50 g of the slurry yeast recovered from the beer fermentation step, 50 g of an aqueous trehalose solution (concentration: about 20%) was added. After stirring at 20° C. for 3 hours, the yeast was centrifuged, suspended in 50 g portions of 300 g/L aqueous solutions of various sugar alcohols and maintained at room temperature for 15 minutes. Subsequently, the yeast was filtered under suction on a filter paper No.2 as in Example 2. The obtained yeast was passed through a 14-mesh sieve and dried in a thermostat at 5° C. for about 20 hours. The dry yeast thus obtained was reconstituted with water as in Example 2 and stained with Methylene Blue to measure the mortality of the yeast.
To 50 g of the slurry yeast recovered from the beer fermentation step, 50 g of an aqueous trehalose solution (concentration: about 20%) was added. After stirring at 20° C. for 3 hours, the yeast was centrifuged, suspended in 50 g of an about 300 g/L aqueous glycerol solution and maintained at room temperature for 15 minutes. Subsequently, the yeast was filtered under suction on a filter paper No.2 as in Example 2. The obtained yeast was passed through a 14-mesh sieve and dried in a thermostat at 5° C. to 30° C. for about 20 hours. Alternatively, the yeast was dried by using a fluidized bed dryer at 30° C. for 1 hour. Each of the dry yeast thus obtained was rehydrated with water as in Example 2 and stained with Methylene Blue to measure the mortality of the yeast.

[1] = sugar/sugar alcohol (about 20% solution, 20° C., 3 hours) as substitute for trehalose, then 300 g/L glycerol, dried at 5° C.
[2] = trehalose-treatment, then 300 g/L sugar alcohol as substitute for glycerol, 15 minutes, dried at 5° C.
[3] = trehalose-treatment as in Example 2, after rehydration with water
[4] = glycerol 100 g/L after trehalose-treatment
[5] = glycerol 150 g/L after trehalose-treatment
[6] = glycerol 200 g/L after trehalose-treatment
[7] = glycerol 300 g/L after trehalose-treatment

In the case of O=C[C@H](O)[C@@H](O)[C@H](O[C@@H]1O[C@H](CO)[C@@H](O)[C@H](O)[C@H]1O)[C@H](O)CO [Cellobiose], the “Methylene Blue-staining ratio (%) after reconstitution with water” value (“Methylene Blue-staining ratio (%)” for short) [1] was 54.8%.
With OC[C@@H](O)[C@H](O)[C@@H](O)CO [Xylitol] the “Elevating the survival ratio of the yeast after reconstitution with water, similar to glycerol” value was “effective”, the “Methylene Blue-staining ratio (%)” value [1] was 41.6% and the “Methylene Blue-staining ratio (%)” value [2] was 30.4%.
For OC1OC[C@@H](O[C@@H]2OC[C@@H](O)[C@H](O)[C@H]2O)[C@H](O)[C@H]1O (some centres unmarked) [Xylobiose], the “Methylene Blue-staining ratio (%)” value [1] was 46.5%.
In the case of OC[C@H]1O[C@H](O[C@H]2O[C@H](CO)[C@@H](O)[C@H](O)[C@H]2O)[C@H](O)[C@@H](O)[C@@H]1O [Trehalose, trehalose], the “Ratio of the dead cells after drying and reconstitution with water” value (10° C., 1 or 3 hours) was “about 60%”, the “Ratio of the dead cells after drying and reconstitution with water” value (10° C., 21 hours) was “about 90%” and the “Methylene Blue-staining ratio” value (before drying, treated with 5% trehalose, 10° C., 1 Hrs) was 8.97. For the same molecule, the “Methylene Blue-staining ratio” value (before drying, treated with 5% trehalose, 10° C., 3 Hrs) was 8.45, the “Methylene Blue-staining ratio” value (before drying, treated with 5% trehalose, 10° C., 21 Hrs) was 11.88 and the “Methylene Blue-staining ratio” value (before drying, treated with 5% trehalose, 20° C., 1 Hrs) was 6.58. For the same molecule, the “Methylene Blue-staining ratio” value (before drying, treated with 5% trehalose, 20° C., 3 Hrs) was 7.51, the “Methylene Blue-staining ratio” value (before drying, treated with 5% trehalose, 20° C., 21 Hrs) was 16.44 and the “Methylene Blue-staining ratio” value (before drying, treated with 10% trehalose, 10° C., 1 Hrs) was 6.36. The “Methylene Blue-staining ratio” value (before drying, treated with 10% trehalose, 10° C., 3 Hrs) was 8.67, the “Methylene Blue-staining ratio” value (before drying, treated with 10% trehalose, 10° C., 21 Hrs) was 17.68 and the “Methylene Blue-staining ratio” value (before drying, treated with 10% trehalose, 20° C., 1 Hrs) was 8.26. The “Methylene Blue-staining ratio” value (before drying, treated with 10% trehalose, 20° C., 3 Hrs) was 9.24, the “Methylene Blue-staining ratio” value (before drying, treated with 10% trehalose, 20° C., 21 Hrs) was 8.90 and the “Methylene Blue-staining ratio” value (immediately after reconstitution with water (dried at 30° C.), 5% trehalose, 10° C., 1 Hrs) was 63.72. For the same molecule, the “Methylene Blue-staining ratio” value (immediately after reconstitution with water (dried at 30° C.), 5% trehalose, 10° C., 3 Hrs) was 63.40, the “Methylene Blue-staining ratio” value (immediately after reconstitution with water (dried at 30° C.), 5% trehalose, 10° C., 21 Hrs) was 90.11 and the “Methylene Blue-staining ratio” value (immediately after reconstitution with water (dried at 30° C.), 5% trehalose, 20° C., 1 Hrs) was 64.95. For the same molecule, the “Methylene Blue-staining ratio” value (immediately after reconstitution with water (dried at 30° C.), 5% trehalose, 20° C., 3 Hrs) was 84.17, the “Methylene Blue-staining ratio” value (immediately after reconstitution with water (dried at 30° C.), 5% trehalose, 20° C., 21 Hrs) was 92.47 and the “Methylene Blue-staining ratio” value (immediately after reconstitution with water (dried at 30° C.), 10% trehalose, 10° C., 1 Hrs) was 69.51. For the same molecule, the “Methylene Blue-staining ratio” value (immediately after reconstitution with water (dried at 30° C.), 10% trehalose, 10° C., 3 Hrs) was 64.95, the “Methylene Blue-staining ratio” value (immediately after reconstitution with water (dried at 30° C.), 10% trehalose, 10° C., 21 Hrs) was 79.33 and the “Methylene Blue-staining ratio” value (immediately after reconstitution with water (dried at 30° C.), 10% trehalose, 20° C., 1 Hrs) was 62.15. The “Methylene Blue-staining ratio” value (immediately after reconstitution with water (dried at 30° C.), 10% trehalose, 20° C., 3 Hrs) was 62.04, the “Methylene Blue-staining ratio” value (immediately after reconstitution with water (dried at 30° C.), 10% trehalose, 20° C., 21 Hrs) was 87.43 and the “Methylene Blue-staining ratio (%)” value [1] was 32.2%. For the same molecule, the “Mortality (%) after drying at 30° C.” value [3] was 73.4% and the “Mortality (%) after drying at 50° C.” value [3] was 58.0%.
OC[C@H]1O[C@@](CO)(O[C@H]2O[C@H](CO)[C@@H](O)[C@H](O)[C@H]2O)[C@@H](O)[C@@H]1O [Sucrose] was tested, and the “Methylene Blue-staining ratio (%)” value [1] was 51.9%.
With OC[C@@H](O)[C@@H](O)[C@H](O)[C@@H](O)CO [Sorbitol] the “Methylene Blue-staining ratio (%)” value [1] was 41.8% and the “Methylene Blue-staining ratio (%)” value [2] was 41.2%.
For O=C(CO)[C@@H](O)[C@H](O)[C@H](O)CO [Fructose], the “Methylene Blue-staining ratio (%)” value [1] was 51.1%.
With OC[C@@H](O)[C@@H](O[C@H]1O[C@H](CO)[C@@H](O)[C@H](O)[C@H]1O)[C@H](O)[C@@H](O)CO [Maltitol] the “Elevating the survival ratio of the yeast after reconstitution with water, similar to glycerol” value was “effective”, the “Elevating the survival ratio of the dry yeast after reconstitution with water, similar to trehalose” value (shortened to “Elevating the survival ratio … to trehalose”) was “effective” and the “Methylene Blue-staining ratio (%)” value [1] was 29.7%. For the same molecule, the “Methylene Blue-staining ratio (%)” value [2] was 30.1%.
With O=C[C@H](O)[C@@H](O)[C@@H](O)[C@H](O)CO [Galactose] the “Methylene Blue-staining ratio (%)” value [1] was 40.6%.
With OC[C@H]1O[C@H](O[C@H]2[C@H](O)[C@@H](O)[C@H](O)O[C@@H]2CO)[C@H](O)[C@@H](O)[C@@H]1O [Maltose] the “Methylene Blue-staining ratio (%)” value [1] was 56.4%.
In the case of OC[C@@H](O)[C@@H](O)[C@H](O)[C@H](O)CO [Mannitol], the “Elevating the survival ratio … to trehalose” value was “effective”, the “Methylene Blue-staining ratio (%)” value [1] was 37.1% and the “Methylene Blue-staining ratio (%)” value [2] was 47.5%.
In the case of O=C[C@H](O)[C@@H](O)[C@H](O)CO [Xylose], the “Elevating the survival ratio … to trehalose” value was “effective” and the “Methylene Blue-staining ratio (%)” value [1] was 37.7%.
In the case of OCC(O)CO [Glycerol, glycerol], the “Methylene Blue-staining ratio, after reconstitution with water after drying and storing at 25° C. for 8 days” value (“Methylene Blue-staining ratio … for 8 days” for short) [4] was 59.8%, the “Methylene Blue-staining ratio, before drying” value [4] was 20.8% and the “Methylene Blue-staining ratio, immediately after drying/reconstitution with water” value (glycerol 100 g/L after trehalose-treatment, dried at 5° C.) was 30.8%. The “Methylene Blue-staining ratio … for 8 days” value [5] was 62.3%, the “Methylene Blue-staining ratio, before drying” value [5] was 66.7% and the “Methylene Blue-staining ratio, immediately after drying/reconstitution with water” value (glycerol 150 g/L after trehalose-treatment, dried at 5° C.) was 23.7%. The “Methylene Blue-staining ratio … for 8 days” value [6] was 40.2%, the “Methylene Blue-staining ratio, before drying” value [6] was 97.8% and the “Methylene Blue-staining ratio, immediately after drying/reconstitution with water” value (glycerol 200 g/L after trehalose-treatment, dried at 5° C.) was 26.3%. For the same molecule, the “Methylene Blue-staining ratio … for 8 days” value [7] was 48.5%, the “Methylene Blue-staining ratio, before drying” value [7] was 99.6% and the “Methylene Blue-staining ratio, immediately after drying/reconstitution with water” value (glycerol 300 g/L after trehalose-treatment, dried at 5° C.) was 26.2%. For the same molecule, the “Methylene Blue-staining ratio, before drying” value (trehalose-treatment then 300 g/L aqueous glycerol, 15 minutes) was 95.8%, the “Methylene Blue-staining ratio, after drying/reconstitution with water” value (trehalose-treatment then 300 g/L aqueous glycerol, 15 minutes, dried at 5° C.) was 18.3% and the “Methylene Blue-staining ratio (%)” value [2] was 24.4%.
OC[C@H]1O[C@@H](O[C@H]2[C@H](O)[C@@H](O)C(O)O[C@@H]2CO)[C@H](O)[C@@H](O)[C@H]1O (some centres unmarked) [Lactose] was tested, and the “Methylene Blue-staining ratio (%)” value [1] was 38.6%.

Source: patent publication US7052724B2, “Method of producing active dry yeast” (Suntory Limited, priority 2001, dated 2006)
